The structures appear in SMILES notation. Calls of active or inactive are those of the source. The calls are words filed in the database; no cut-off is given here.

The results in this text go back to ChEMBL document CHEMBL4725335, “Deciphering the robustness of pyrazolo-pyridine carboxylate core structure-based compounds for inhibiting α-synuclein in transgenic C. elegans model of Synucleinopathy” (Bioorg Med Chem, 2020).

The target of test [1] is Alpha-synuclein (Homo sapiens) (UniProt P37840). In words: Inhibition of human alpha-synuclein aggregation expressed in transgenic Caenorhabditis elegans NL5901 assessed as decrease in alpha-synuclein expression at 1% after 48 hrs by fluorescence microscopy analysis.
Test [2] shares this target. Nature of the test: Inhibition of human alpha-synuclein aggregation expressed in transgenic Caenorhabditis elegans NL5901 by measuring fluorescence intensity at 1% incubated for 48 hrs by fluorescence microscopy analysis relative to control.

The term inhibition denotes the relative decrease from the control value, in per cent. Regarding `CCOC(=O)c1cnc2c(cnn2-c2ccc(F)c(F)c2)c1N1CCN(c2ncccc2C#N)CC1`, the inhibition result in test [1] is “Active”. Moreover, the inhibition in test [2] was determined as 13.5%.
The corresponding values for `CCOC(=O)c1cnc2c(cnn2-c2ccccc2)c1N1CCN(c2ncccc2C#N)CC1` are “Active” and 33.1%.
Consider `CCOC(=O)c1cnc2c(cnn2-c2ccccc2)c1Oc1cccc2cccnc12`, for which the inhibition result in test [1] was “Active”. The same molecule yielded an inhibition in test [2] of 24.4%.
For `CCOC(=O)c1cnc2c(cnn2-c2ccccc2)c1N1CCN(S(=O)(=O)c2ccc(NC(C)=O)cc2)CC1`, in that order: “Active” and 17.7%.
`CCOC(=O)c1cnc2c(cnn2-c2ccccc2)c1N1CCN(c2ccnc3cc(Cl)ccc23)CC1`: the inhibition result in test [1] is “Active”. In test [2], this molecule returned a fold change (FC) of 1.7 and an inhibition of 39.2%.
Turning to `CCOC(=O)c1cnc2c(cnn2-c2ccccc2)c1N1CCN(c2cc(C)nc3ncnn23)CC1`, the inhibition result in test [1] was “Active”. This molecule also had an inhibition in test [2] of 31.9%.
With `CCOC(=O)c1cnc2c(cnn2-c2ccccc2F)c1N1CCN(c2ncccc2C#N)CC1`, the inhibition entry in test [1] is “Active”. In test [2], the inhibition stood at 26.1%.
For the molecule `CCOC(=O)c1cnc2c(cnn2-c2ccccc2)c1N1CCN(c2cc(=O)[nH]c3ccccc23)CC1`, the inhibition entry in test [1] is “Active”. Also, the inhibition in test [2] is 14.7%.
The corresponding values for `CCOC(=O)c1cnc2c(cnn2-c2cccc(C(F)(F)F)c2)c1N1CCN(c2ncccc2C#N)CC1` are “Active” and 27.3%.
As to `CCOC(=O)c1cnc2c(cnn2-c2ccccc2)c1N1CCOCC1`, the inhibition result in test [1] was “Active”. Also, the inhibition in test [2] was determined as 30.2%.
Take `CCOC(=O)c1cnc2c(cnn2-c2ccccc2)c1N1CCN(C)CC1`: the inhibition result in test [1] was “Active”. Besides, in test [2], the fold change (FC) turned out to be 2.4 and the inhibition was determined as 53%.
`CCOC(=O)c1cnc2c(cnn2-c2ccccc2)c1N1CCCCC1`: in test [1], the inhibition entry was “Active”. Moreover, in test [2], the fold change (FC) came to 1.5 and the inhibition was 47.7%.
As for `CCOC(=O)c1cnc2c(cnn2-c2ccccc2)c1N1CCN(c2cc(C(F)(F)F)nc3ncnn23)CC1`, in test [1], the inhibition entry is “Active”. In addition, in test [2], the inhibition is 14.1%.
